Test results from patent US20130252814A1, “SYNERGISTIC HERBICIDAL COMPOSITION CONTAINING PENOXSULAM AND PRETILACHLOR” (DOW AGROSCIENCES LLC, priority 2011, published 2013).

Tested on: ECHCG - Echinochloa crus-galli (barnyardgrass)
Assay: Preemergence herbicidal activity of mixtures under field conditions, seeded rice, field trial Taiwan
Assay type: in vivo
Experimental: A field trial was conducted in rice in Taiwan using standard herbicide small plot research methodology. Plot size was 1 meter (m) wide by 1 m long. There were 3 replicates per treatment. Soil type was medium texture. Rice was sown by hand direct dry seeding as per normal local cultural practices. The rice crop was grown using normal cultural practices for fertilization, watering, flooding and maintenance to ensure good growth of the crop and the weeds. Treatments were applied by backpack sprayer using compressed air at 30 pounds per square inch (psi) spray pressure. Spray tips were Flat Fan Teejet nozzles, delivering a spray volume of 300 liters per hectare (L/ha). For each treatment, the appropriate formulated product amount to treat the plot area, to achieve the desired application rate, based on unit area of application (hectare), was calculated, measured, and mixed in water prior to applying with the backpack sprayer. Treatments were rated as compared to the untreated control plots. The treated plots and control plots were rated blind at various intervals after application. Ratings were based of Percent (%) Visual weed control, where 0 corresponds to no injury and 100 corresponds to complete kill. Colby's equation was used to determine the herbicidal effects expected from the mixtures (Colby, S. R. Calculation of the synergistic and antagonistic response of herbicide combinations. Weeds 1967, 15, 20-22). The following equation was used to calculate the expected activity of mixtures containing two active ingredients, A and B: Expected=A+B−(A×B/100) A=observed efficacy of active ingredient A at the same concentration as used in the mixture and B=observed efficacy of active ingredient B at the same concentration as used in the mixture.

| Structure (SMILES) | % Control ECHCG Obs (7 days after preemergence application, penoxsulam 7.5 gr ai/ha) [%] | % Control ECHCG Obs (7 days after preemergence application, penoxsulam 23 gr ai/ha) [%] | % Control ECHCG Obs (28 days after preemergence application, penoxsulam 7.5 gr ai/ha) [%] | % Control ECHCG Obs (28 days after preemergence application, penoxsulam 15 gr ai/ha) [%] | % Control ECHCG Obs (7 days after preemergence application, pretilachlor 270 gr ai/ha) [%] | % Control ECHCG Obs (7 days after preemergence application, pretilachlor 540 gr ai/ha) [%] | % Control ECHCG Obs (28 days after preemergence application, pretilachlor 270 gr ai/ha) [%] | % Control ECHCG Obs (28 days after preemergence application, pretilachlor 540 gr ai/ha) [%] |
| --- | --- | --- | --- | --- | --- | --- | --- | --- |
| COc1cnc(OC)n2nc(NS(=O)(=O)c3c(OCC(F)F)cccc3C(F)(F)F)nc12 [Penoxsulam, 2-(2,2-difluoroethoxy)-N-(5,8-dimethoxy-[1,2,4]triazolo[1,5-c]pyrimidin-2-yl)-6-(trifluoromethyl)benzenesulfonamide] | 47 | 95 | 7 | 80 | – | – | – | – |
| CCCOCCN(C(=O)CCl)c1c(CC)cccc1CC [Pretilachlor, 2-chloro-N-(2,6-diethylphenyl)-N-(2-propoxyethyl)acetamide] | – | – | – | – | 3 | 3 | 0 | 0 |
